Values joined by “and” are separate entries in the source; they are usually repeats but may differ in a detail not shown here. Equal values may be shown once.
Columns and labels:
Mtb H37Rv WT [1] = conditions: cited from earlier work
[2] = system: Mtb pptT cKD -ATc (PptT depleted); format: cell-based, Mycobacterium tuberculosis; conditions: PptT depleted by withholding ATc
Mtb DHFR = target: T1, Mtb DHFR (Mycobacterium tuberculosis, UniProt P9WNX1); test: Dihydrofolate reductase; format: biochemical
T1 sequence (P9WNX1 1-161): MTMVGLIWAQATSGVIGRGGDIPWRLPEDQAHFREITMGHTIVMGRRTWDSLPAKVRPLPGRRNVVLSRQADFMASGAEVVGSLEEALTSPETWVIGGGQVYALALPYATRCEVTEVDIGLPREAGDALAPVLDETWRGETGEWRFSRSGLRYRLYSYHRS

PptT [3] = target: T2, PptT (Mycobacterium tuberculosis, UniProt O33336); test: Kinetic mechanism assay for N-ACP PKS13 substrate; format: biochemical
T2 sequence (O33336 1-227): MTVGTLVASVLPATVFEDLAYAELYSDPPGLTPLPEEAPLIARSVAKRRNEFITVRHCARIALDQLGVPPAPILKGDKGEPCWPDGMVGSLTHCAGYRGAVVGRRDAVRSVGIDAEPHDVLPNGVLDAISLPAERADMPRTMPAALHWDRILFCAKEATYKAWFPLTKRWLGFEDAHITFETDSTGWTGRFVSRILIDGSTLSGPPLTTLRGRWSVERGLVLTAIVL

PptT [4] = target: T2, PptT; test: FP-based PptT enzyme assay; format: biochemical
PptT [5] = target: T2, PptT; test: BpsA assay of PptT activity with native CoA; format: biochemical
Mtb H37Rv = conditions: 10 μM, 24 hours, Mtb on filters
PptT [6] = target: T2, PptT; test: Differential scanning fluorimetry thermal shift assay; format: binding; conditions: for ΔTm of CoA-preincubated PptT: 50 μM Ralt-1, Hepes buffer without arginine/glutamate
Mtb pptT cKD +ATc = test: microbe, parasite or virus in culture; format: cell-based; conditions: Mycobacterium tuberculosis, read-out: MIC90 PptT KD +ATc
CoA-saturated PptT = target: T3, CoA-saturated PptT (Mycobacterium tuberculosis, UniProt O33336); test: biochemical; format: binding
T3 sequence (O33336 1-227): T2 sequence (O33336 1-227)

Mtb pptH KO = test: Minimal inhibitory concentration determination, pptH KO; format: cell-based; conditions: Mycobacterium tuberculosis, read-out: MIC90 ΔPptH
PptT [7] = target: T2, PptT; test: Preincubation and rapid dilution assay; format: biochemical; conditions: 10 μM each preincubated, 500-fold dilution
Mtb H37Rv WT [8] = format: cell-based, Mycobacterium tuberculosis

Row | SMILES | MIC90 against Mtb (Mtb H37Rv WT [1]) [µM] | MIC90 PptT KD -ATc [2] [nM] | IC50 (Mtb DHFR) [nM] | mode of inhibition with respect to the ACP substrate (PptT [3]) | maximum inhibition (PptT [4]; FP assay, BDP-CoA, normalized) [%] | IC50 (PptT [4]; IC50 PptT, FP assay at 100 nM PptT enzyme concentration) | IC50 (PptT [4]; IC50 PptT, FP assay, fresh/resupplied powder or purity-checked sample) [nM] | IC50 (PptT [4]; IC50 against rPptT) [nM] | Hill slope (h) (PptT [4]; concentration-response curve, FP assay) | IC50 (PptT [5]) [nM] | % Uptake from media (Mtb H37Rv) [%] | ΔTm of CoA-preincubated PptT (PptT [6]; 1 mM CoA) [°C] | ΔTm of CoA-preincubated PptT (PptT [6]; 2 mM CoA) [°C] | gain in melting temperature (Tm) of PptT (PptT [6]; 1:10 molar ratio of protein to Ralt-1) [°C] | MIC (Mtb pptT cKD +ATc) [µM] | Kd (CoA-saturated PptT) [nM] | MIC (Mtb pptH KO) [µM] | reversibility of binding to PptT (PptT [7]) | MIC90 H37Rv (Mtb H37Rv WT [8]) [µM] | whole-cell activity / target profile against Mtb (in words) (Mtb H37Rv WT [8])
1 | CN(Cc1cnc2nc(N)nc(N)c2n1)c1ccc(C(=O)N[C@@H](CCC(=O)O)C(=O)O)cc1 [Methotrexate] | > 100000 |  |  |  |  |  |  |  |  |  |  |  |  |  |  |  |  |  |  | 
2 | Cc1nc2ccc(CN(C)c3ccc(C(=O)N[C@@H](CCC(=O)O)C(=O)O)s3)cc2c(=O)[nH]1 [Ralt-1, Raltitrexed] |  | >100000 | 8500 | noncompetitive mode of inhibition | ≥ 100 | 70 nM and 65 nM | ~50 | 730 | 1.5 | 250 | 1.2 ± 0.1 | 4 | 3 | 15 | > 100 | 290 ± 29 | > 100 | readily reversible | >100 | no activity
